The text below walks through data of patent US20240277631A1, “SMALL MOLECULE DRUG (ELP-004) TO PREVENT BONE LESIONS CAUSED BY MULTIPLE MYELOMA” (West Virginia University Board of Governors on behalf of …, priority 2023, published 2024).

Usually IC50 stands for the concentration needed to halve the response being measured.

The target of one data set is dopamine transporter (Homo sapiens, UniProt Q01959). The data set is described as follows: dopamine transport. The text has this: ELP-004 has been evaluated for its ability to cross the blood brain barrier. […] Other medications, such as but not limited to bupropion, are known to cause problems due to dopamine transporter binding.
Chain of dopamine transporter (Q01959 whole entry): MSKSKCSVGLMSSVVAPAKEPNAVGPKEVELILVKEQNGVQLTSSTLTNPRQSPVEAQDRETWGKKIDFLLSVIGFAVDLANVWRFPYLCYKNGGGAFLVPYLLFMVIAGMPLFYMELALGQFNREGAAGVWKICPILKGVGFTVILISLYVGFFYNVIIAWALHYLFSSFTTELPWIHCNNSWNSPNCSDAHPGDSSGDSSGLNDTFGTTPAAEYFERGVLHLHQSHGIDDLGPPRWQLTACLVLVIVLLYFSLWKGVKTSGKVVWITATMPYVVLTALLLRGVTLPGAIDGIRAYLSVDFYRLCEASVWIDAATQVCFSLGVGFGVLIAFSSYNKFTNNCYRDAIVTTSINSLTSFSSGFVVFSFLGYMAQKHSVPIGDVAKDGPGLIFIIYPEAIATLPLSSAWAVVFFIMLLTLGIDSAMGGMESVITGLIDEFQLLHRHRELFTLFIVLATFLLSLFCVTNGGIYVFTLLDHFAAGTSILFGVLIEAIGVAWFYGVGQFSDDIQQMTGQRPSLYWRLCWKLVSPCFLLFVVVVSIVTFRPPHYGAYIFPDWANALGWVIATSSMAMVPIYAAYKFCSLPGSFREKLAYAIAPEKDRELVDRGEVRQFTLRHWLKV
The next data set deals with U266 cells. The data set is described as follows: U266 cell viability (Axenin V method) and cell counts. In kind it is cell-based, human. The protocol:
The U266 cells were incubated in the presence of the noted concentrations of ELP-004, and the viability of the cells was determined at the indicated times using the Axenin V method.
Initial treatment with N-methyl dichloropropionaniline (N-MeDCPA, ELP-004) was examined. The N-MeDCPA was designed and synthesized and tested in laboratory experiments. A treatment scheme with plated cells was devised using N-MeDCPA as compared to a DMSO vehicle only, along with 100 μM and 200 μM dosages on U266 cell samples. U266 is a B lymphocyte isolated from the peripheral blood of a patient with myeloma and is commonly used in immune system disorder research and immunology research. The cells were allowed to incubate then counted under a 10× lens.
As may be seen in FIG. 1, the growth curve of cell samples as treated with the varying concentrations versus a DMSO vehicle can be observed. The number of cells per milliliter was calculated after examination and counting under the lens.
The effect of ELP-004 (i.e. N-MeDCPA) on […] (a myeloma cell line) proliferation is described above.

Data set [1] relates to osteoclasts differentiated from Murine BMSMCs. The data set is described as follows: matrix resorption (pit formation) on Osteo-Assay surface plates. It is filed as cell-based. To be noted: irrespective of conditions, days 7, 14, 21. The protocol: Murine BMSMCs were differentiated to form osteoclasts on Osteo-Assay surface plates. The sizes of pits formed by the resorptive activity of osteoclasts differentiated under the three conditions were analyzed at days 7, 14, and 21. Average pit sizes of 10-30 pits are shown.

The next data set deals with T1, CYP1A2 (Homo sapiens, UniProt P05177).
T1 sequence (P05177 1-516): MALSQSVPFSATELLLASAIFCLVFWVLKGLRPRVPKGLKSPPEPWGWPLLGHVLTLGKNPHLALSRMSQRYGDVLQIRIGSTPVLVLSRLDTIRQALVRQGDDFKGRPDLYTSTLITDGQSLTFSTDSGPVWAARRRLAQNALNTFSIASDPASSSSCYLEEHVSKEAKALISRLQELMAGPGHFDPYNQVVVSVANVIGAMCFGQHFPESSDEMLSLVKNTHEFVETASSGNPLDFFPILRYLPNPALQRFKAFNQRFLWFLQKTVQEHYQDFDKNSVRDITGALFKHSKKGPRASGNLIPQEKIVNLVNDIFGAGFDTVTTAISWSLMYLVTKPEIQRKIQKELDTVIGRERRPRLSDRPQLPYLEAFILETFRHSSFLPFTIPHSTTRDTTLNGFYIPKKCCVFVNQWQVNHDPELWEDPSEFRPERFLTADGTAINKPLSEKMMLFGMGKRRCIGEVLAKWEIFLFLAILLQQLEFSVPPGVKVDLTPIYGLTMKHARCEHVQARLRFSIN
Description: stability with recombinant CYP1A2. In kind it is in vitro ADME. The conditions noted are these: recombinant CYP1A2, intrinsic clearance, read-out: Recombinant CYP CLINT. The protocol: (§1) Depicted in table 2 is cytochrome P450 phenotyping and inhibition by ELP-004. The stability of ELP-004 was tested in the presence of recombinant enzymes CYP1A2, CYP2B6, CYP2C8, CYP2C9, CYP2C19, CYP2D6, and CYP3A4. ELP-004 (1 μM) was incubated with recombinant enzymes and NADPH. The amount of ELP-004 remaining at each timepoint was analyzed by LC-MS/MS. Incubations in control recombinant enzymes were also performed to assess non-enzymatic mediated stability. The intrinsic clearance of ELP-004 was determined. […] A decrease in the formation of the metabolite compared to vehicle control is used to calculate an IC50 value. Metabolite peak area ratio response as a percentage of vehicle control is plotted against the test compound concentration.

The subject of data set [2] is CYP isoforms CYP1A2, CYP2B6, CYP2C8, CYP2C9, CYP2C19, CYP2D6, and CYP3A4. The data set is described as follows: reversible CYP inhibition in human liver microsomes, summary over all isoforms. It is filed as in vitro ADME. The conditions noted are these: any CYP, concentration range 0.02-25 μM. The protocol:
as §1
In general terms: Liver microsomes are a subcellular fraction often used to study metabolism.

As for `CCC(=O)N(C)c1ccc(Cl)c(Cl)c1` [ELP-004, N-(3,4-dichlorophenyl)-N-methylpropanamide], the “problems with dopamine transport” value at dopamine transporter is “does not cause problems with dopamine transport”. In the data set on U266 cells (Homo sapiens, U-266, U266 cells, viability by Axenin V method, calculated using two methods), the concentration for half-maximal inhibition (IC50) is 154 µM. Besides, in the data set on U266 cells (U66 (U266) myeloma cell line), the myeloma cell proliferation result was “inhibits myeloma cell proliferation”. The “matrix resorption activity of osteoclasts” value in data set [1] is given as “No resorption was observed”. Also, at CYP1A2, the microsomal CLint at 1 μM turned out to be 2.85 µL/min/mg. For the same compound, in data set [2], the “reversible inhibition of CYP isoforms” value is “did not inhibit”.
